Experiments:
CDK4 = CDK4 (Homo sapiens, UniProt P11802+Q16531); assay: HiBiT detection of HiBiT-tagged CDK4 protein level in MCF7 cells, 16 hours (Table 8); format: cell-based; set-up: expressed in transfected cells; host or cells: MCF7; conditions: MCF7 cells stably expressing HiBiT tagged target proteins; for activity at 0.01 µM: 10 nM, read-out: % CDK4 Relative Level (10 nM); for activity at 0.1 µM: 100 nM, read-out: % CDK4 Relative Level (100 nM)
Method: HiBiT detection system quantitatively measures total amounts of HiBiT-tagged proteins using a luminescent based method. MCF7 cells stably expressing HiBiT tagged target proteins were treated with heterobifunctional compounds at indicated concentrations for 16 hours, then lysed with Nano-Glo HiBiT Lytic detection reagents.

MCF7 cells = assay: Anti-proliferation (viability) of MCF7 cells (Table 7, FIG. 2B); format: cell-based; conditions: Homo sapiens, MCF7, MCF7 cells, 3-6 days, 10-point serial dilution; read-out: GI IC50 in MCF-7

Sequence of CDK4 (P11802 whole entry): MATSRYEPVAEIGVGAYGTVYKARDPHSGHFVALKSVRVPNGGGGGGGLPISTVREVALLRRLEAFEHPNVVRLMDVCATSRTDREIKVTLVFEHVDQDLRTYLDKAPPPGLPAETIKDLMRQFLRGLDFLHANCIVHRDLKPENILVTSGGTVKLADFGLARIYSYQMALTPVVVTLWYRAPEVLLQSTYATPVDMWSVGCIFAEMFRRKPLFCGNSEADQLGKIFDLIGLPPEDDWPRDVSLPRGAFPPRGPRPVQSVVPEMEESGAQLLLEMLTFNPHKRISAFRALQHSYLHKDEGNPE
Sequence of CDK4 (P24385 whole entry partner): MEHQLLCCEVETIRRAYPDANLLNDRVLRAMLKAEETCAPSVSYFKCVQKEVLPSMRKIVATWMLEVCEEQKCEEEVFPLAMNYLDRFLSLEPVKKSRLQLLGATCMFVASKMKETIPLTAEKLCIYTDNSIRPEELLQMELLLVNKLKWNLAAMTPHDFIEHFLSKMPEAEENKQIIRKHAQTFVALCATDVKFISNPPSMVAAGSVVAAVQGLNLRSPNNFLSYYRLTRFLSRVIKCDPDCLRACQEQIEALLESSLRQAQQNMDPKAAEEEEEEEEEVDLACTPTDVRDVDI
Sequence of CDK4 (Q16531 2-1140 limits assumed): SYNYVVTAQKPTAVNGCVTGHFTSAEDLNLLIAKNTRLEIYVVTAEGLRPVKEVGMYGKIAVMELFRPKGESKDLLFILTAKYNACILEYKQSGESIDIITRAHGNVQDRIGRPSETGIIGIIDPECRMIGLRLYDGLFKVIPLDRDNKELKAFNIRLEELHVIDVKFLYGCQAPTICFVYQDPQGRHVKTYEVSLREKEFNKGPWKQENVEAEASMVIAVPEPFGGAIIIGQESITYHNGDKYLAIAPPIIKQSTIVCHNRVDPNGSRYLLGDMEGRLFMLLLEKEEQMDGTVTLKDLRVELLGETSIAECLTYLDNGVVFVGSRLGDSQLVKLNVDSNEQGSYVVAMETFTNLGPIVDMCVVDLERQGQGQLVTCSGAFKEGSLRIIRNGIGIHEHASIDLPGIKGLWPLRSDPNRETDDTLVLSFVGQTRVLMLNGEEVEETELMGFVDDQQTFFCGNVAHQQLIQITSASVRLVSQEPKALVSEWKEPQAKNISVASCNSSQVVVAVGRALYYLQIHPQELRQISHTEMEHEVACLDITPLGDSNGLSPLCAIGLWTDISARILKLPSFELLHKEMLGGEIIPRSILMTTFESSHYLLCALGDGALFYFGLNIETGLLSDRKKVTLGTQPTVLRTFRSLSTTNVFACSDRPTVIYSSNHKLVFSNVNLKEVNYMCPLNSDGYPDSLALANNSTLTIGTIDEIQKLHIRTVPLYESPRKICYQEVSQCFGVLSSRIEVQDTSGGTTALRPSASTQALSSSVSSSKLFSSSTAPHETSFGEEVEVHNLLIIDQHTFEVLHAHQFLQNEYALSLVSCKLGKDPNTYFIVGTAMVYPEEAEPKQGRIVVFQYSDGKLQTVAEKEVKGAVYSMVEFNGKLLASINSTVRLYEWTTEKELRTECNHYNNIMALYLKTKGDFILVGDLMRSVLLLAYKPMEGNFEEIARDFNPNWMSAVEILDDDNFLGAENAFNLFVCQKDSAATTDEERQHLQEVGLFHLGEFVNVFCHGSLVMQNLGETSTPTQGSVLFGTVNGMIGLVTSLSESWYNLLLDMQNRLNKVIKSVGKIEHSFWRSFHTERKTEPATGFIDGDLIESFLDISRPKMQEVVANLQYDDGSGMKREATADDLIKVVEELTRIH

SMILES | activity at 0.01 µM (CDK4) [%] | activity at 0.1 µM (CDK4) [%] | IC50 (MCF7 cells) [nM]
CNc1ccc(C(=O)Nc2ccc(N(C)C)nn2)c(NCCCCCCCCNC(=O)CN2CCN(c3ccc(Nc4ncc5cc(C(=O)N(C)C)n(C6CCCC6)c5n4)nc3)CC2)n1 [CPD-630, 7-cyclopentyl-2-((5-(4-(2-((8-((3-((6-(dimethylamino)pyridazin-3-yl)carbamoyl)-6-(methylamino)pyridin-2-yl)amino)octyl)amino)-2-oxoethyl)piperazin-1-yl)pyridin-2-yl)amino)-N,N-dimethyl-7H-pyrrolo[2,3-d]pyrimidine-6-carboxamide] | 55 to 85 | 55 to 85 | > 100
CC(C)Nc1ccc(C(=O)Nc2ccc(N(C)C)nn2)c(NC2CC3(CC(NC(=O)CN4CCN(Cc5ccc(Nc6ncc7cc8n(c7n6)C6(CCCCC6)CNC8=O)nc5)CC4)C3)C2)n1 (stereo not drawn) [CPD-558, N-(6-(dimethylamino)pyridazin-3-yl)-6-(isopropylamino)-2-((6-(2-(4-((6-((6′-oxo-7′,8′-dihydro-6′H-spiro[cyclohexane-1,9′-pyrazino[1′,2′:1,5]pyrrolo[2,3-d]pyrimidin]-2′-yl)amino)pyridin-3-yl)methyl)piperazin-1-yl)acetamido)spiro[3.3]heptan-2-yl)amino)nicotinamide] | > 85 | > 85 | > 100
CC(=O)c1c(C)c2cnc(Nc3ccc(CN4CCN(CC(=O)N5CCC6(CCC(Nc7nc(C(C)C)ccc7C(=O)Nc7ccc(N(C)C)nn7)C6)C5)CC4)cn3)nc2n(C2CCCC2)c1=O (stereo not drawn) [CPD-583, 2-((2-(2-(4-((6-((6-acetyl-8-cyclopentyl-5-methyl-7-oxo-7,8-dihydropyrido[2,3-d]pyrimidin-2-yl)amino)pyridin-3-yl)methyl)piperazin-1-yl)acetyl)-2-azaspiro[4.4]nonan-7-yl)amino)-N-(6-(dimethylamino)pyridazin-3-yl)-6-isopropylnicotinamide] | 55 to 85 | 55 to 85 | < 50
CCc1ccc(C(=O)Nc2ccc(N(C)C)nn2)c(NC2CCC3(CCN(C(=O)CN4CCN(Cc5ccc(Nc6ncc7c(C)c(C(C)=O)c(=O)n(C8CCCC8)c7n6)nc5)CC4)C3)C2)n1 (stereo not drawn) [CPD-582, 2-((2-(2-(4-((6-((6-acetyl-8-cyclopentyl-5-methyl-7-oxo-7,8-dihydropyrido[2,3-d]pyrimidin-2-yl)amino)pyridin-3-yl)methyl)piperazin-1-yl)acetyl)-2-azaspiro[4.4]nonan-7-yl)amino)-N-(6-(dimethylamino)pyridazin-3-yl)-6-ethylnicotinamide] | 55 to 85 | 55 to 85 | < 50
CNc1ccc(C(=O)Nc2ccc(N(C)C)nn2)c(NCCCCCC(=O)N2CCN(c3ccc(Nc4ncc5cc6n(c5n4)C4(CCCCC4)CNC6=O)nc3)CC2)n1 [CPD-635, N-(6-(dimethylamino)pyridazin-3-yl)-6-(methylamino)-2-((6-oxo-6-(4-(6-((6′-oxo-7′,8′-dihydro-6′H-spiro[cyclohexane-1,9′-pyrazino[1′,2′:1,5]pyrrolo[2,3-d]pyrimidin]-2′-yl)amino)pyridin-3-yl)piperazin-1-yl)hexyl)amino)nicotinamide] | 55 to 85 | 55 to 85 | > 100
CNc1ccc(C(=O)Nc2ccc(N(C)C)nn2)c(NCCCC(=O)N2CCN(c3ccc(Nc4ncc5cc6n(c5n4)C4(CCCCC4)CNC6=O)nc3)CC2)n1 [CPD-633, N-(6-(dimethylamino)pyridazin-3-yl)-6-(methylamino)-2-((4-oxo-4-(4-(6-((6′-oxo-7′,8′-dihydro-6′H-spiro[cyclohexane-1,9′-pyrazino[1′,2′:1,5]pyrrolo[2,3-d]pyrimidin]-2′-yl)amnion)pyridin-3-yl)piperazin-1-yl)butyl)amino)nicotinamide] | 55 to 85 | > 85 | > 100
CNc1ccc(C(=O)Nc2ccc(N(C)C)nn2)c(NCCCCC(=O)N2CCN(Cc3ccc(Nc4ncc(F)c(-c5cc(F)c6nc(C)n(C(C)C)c6c5)n4)nc3)CC2)n1 [CPD-602, N-(6-(dimethylamino)pyridazin-3-yl)-2-((5-(4-((6-((5-fluoro-4-(4-fluoro-1-isopropyl-2-methyl-1H-benzo[d]imidazol-6-yl)pyrimidin-2-yl)amino)pyridin-3-yl)methyl)piperazin-1-yl)-5-oxopentyl)amino)-6-(methylamino)nicotinamide] | 55 to 85 | 55 to 85 | > 100
CNc1ccc(C(=O)Nc2ccc(N(C)C)nn2)c(NCCCCCCCCNC(=O)CN2CCN(c3ccc(Nc4ncc5cc6n(c5n4)C4(CCCCC4)CNC6=O)nc3)CC2)n1 [CPD-646, N-(6-(dimethylamino)pyridazin-3-yl)-6-(methylamino)-2-((8-(2-(4-(6-((6′-oxo-7′,8′-dihydro-6′H-spiro[cyclohexane-1,9′-pyrazino[1′,2′:1,5]pyrrolo[2,3-d]pyrimidin]-2′-yl)amino)pyridin-3-yl)piperazin-1-yl)acetamido)octyl)amino)nicotinamide] | > 85 | > 85 | > 100
CNc1ccc(C(=O)Nc2ccc(N(C)C)nn2)c(NCCCCNC(=O)CN2CCN(c3ccc(Nc4ncc5cc(C(=O)N(C)C)n(C6CCCC6)c5n4)nc3)CC2)n1 [CPD-626, 7-cyclopentyl-2-((5-(4-(2-((4-((3-((6-(dimethylamino)pyridazin-3-yl)carbamoyl)-6-(methylamino)pyridin-2-yl)amino)butyl)amino)-2-oxoethyl)piperazin-1-yl)pyridin-2-yl)amino)-N,N-dimethyl-7H-pyrrolo[2,3-d]pyrimidine-6-carboxamide] | 55 to 85 | 55 to 85 | > 100
CCc1ccc(C(=O)Nc2ccc(N(C)C)nn2)c(NC2CC3(CC(NC(=O)CN4CCN(Cc5ccc(Nc6ncc7c(C)c(C(C)=O)c(=O)n(C8CCCC8)c7n6)nc5)CC4)C3)C2)n1 (stereo not drawn) [CPD-578, 2-((6-(2-(4-((6-((6-acetyl-8-cyclopentyl-5-methyl-7-oxo-7,8-dihydropyrido[2,3-d]pyrimidin-2-yl)amino)pyridin-3-yl)methyl)piperazin-1-yl)acetamido)spiro[3.3]heptan-2-yl)amino)-N-(6-(dimethylamino)pyridazin-3-yl)-6-ethylnicotinamide] | 55 to 85 | 55 to 85 | < 50
CNc1ccc(C(=O)Nc2ccc(N(C)C)nn2)c(NCCNC(=O)CN2CCN(Cc3ccc(Nc4ncc(F)c(-c5cc(F)c6nc(C)n(C(C)C)c6c5)n4)nc3)CC2)n1 [CPD-608, N-(6-(dimethylamino)pyridazin-3-yl)-2-((2-(2-(4-((6-((5-fluoro-4-(4-fluoro-1-isopropyl-2-methyl-1H-benzo[d]imidazol-6-yl)pyrimidin-2-yl)amino)pyridin-3-yl)methyl)piperazin-1-yl)acetamido)ethyl)amino)-6-(methylamino)nicotinamide] | > 85 | 55 to 85 | > 100
CC(=O)c1c(C)c2cnc(Nc3ccc(N4CCN(C5CCN(C(=O)[C@H]6CC[C@H](Nc7nc(C8CC8)ccc7C(=O)Nc7ccc(N(C)C)nn7)CC6)C5)CC4)cn3)nc2n(C2CCCC2)c1=O (stereo partly drawn) [CPD-573, 2-((trans-4-(3-(4-(6-((6-acetyl-8-cyclopentyl-5-methyl-7-oxo-7,8-dihydropyrido[2,3-d]pyrimidin-2-yl)amino)pyridin-3-yl)piperazin-1-yl)pyrrolidine-1-carbonyl)cyclohexyl)amino)-6-cyclopropyl-N-(6-(dimethylamino)pyridazin-3-yl)nicotinamide] | 55 to 85 | 55 to 85 | < 50
CC(=O)c1c(C)c2cnc(Nc3ccc(N4CCN(C(C)CC(=O)N5CC6(CC(Nc7nc(NC(C)C)ccc7C(=O)Nc7ccc(N(C)C)nn7)C6)C5)CC4)cn3)nc2n(C2CCCC2)c1=O (stereo not drawn) [CPD-368, 2-((2-(3-(4-(6-((6-acetyl-8-cyclopentyl-5-methyl-7-oxo-7,8-dihydropyrido[2,3-d]pyrimidin-2-yl)amino)pyridin-3-yl)piperazin-1-yl)butanoyl)-2-azaspiro[3.3]heptan-6-yl)amino)-N-(6-(dimethylamino)pyridazin-3-yl)-6-(isopropylamino)nicotinamide] | 55 to 85 | 55 to 85 | < 50
CC(=O)c1c(C)c2cnc(Nc3ccc(CN4CCN(CC(=O)N5CCC6(CCC(Nc7nc(C8CC8)ccc7C(=O)Nc7ccc(N(C)C)nn7)C6)C5)CC4)cn3)nc2n(C2CCCC2)c1=O (stereo not drawn) [CPD-581, 2-((2-(2-(4-((6-((6-acetyl-8-cyclopentyl-5-methyl-7-oxo-7,8-dihydropyrido[2,3-d]pyrimidin-2-yl)amino)pyridin-3-yl)methyl)piperazin-1-yl)acetyl)-2-azaspiro[4.4]nonan-7-yl)amino)-6-cyclopropyl-N-(6-(dimethylamino)pyridazin-3-yl)nicotinamide] | 55 to 85 | 55 to 85 | < 50
CC(=O)c1c(C)c2cnc(Nc3ccc(N4CCN(CC(=O)NCC56CC(Nc7nc(NC(C)C)ccc7C(=O)Nc7ccc(N(C)C)nn7)(C5)C6)CC4)cn3)nc2n(C2CCCC2)c1=O [CPD-429, 2-((3-((2-(4-(6-((6-acetyl-8-cyclopentyl-5-methyl-7-oxo-7,8-dihydropyrido[2,3-d]pyrimidin-2-yl)amino)pyridin-3-yl)piperazin-1-yl)acetamido)methyl)bicyclo[1.1.1]pentan-1-yl)amino)-N-(6-(dimethylamino)pyridazin-3-yl)-6-(isopropylamino)nicotinamide] | 55 to 85 | 55 to 85 | < 50

Reference: patent US20260297081A1, “COMPOUNDS AND METHODS OF TREATING CANCERS” (Cullgen Inc., priority 2023, published 2026)
